From patent publication US8084203B2, “Methods for the determination of telomere length in a semi-automatic manner of every single cell in a immobilized cell population” (Fundacion Centro Nacional de Investigaciones Oncologicas …, priority 2008, dated 2011)

Tested on: epidermal stem cell
From the text: Unless otherwise specified, all mice used in this study were males of approximately 2 months of age and from a C57BL6 genetic background. Mice of a FVB genetic background (2 months-old) were also used in Supplementary FIG. S1. Generation and characteristics of the Terc−/− and the K15-EGFP mice were previously described (Morris et al., 2004; Blasco et al., 1997).
To induce epidermal stem cell “mobilization” (activation, migration and proliferation), tail skin in the telogen (resting) phase of the hair cycle was topically treated every 48 h with TPA (20 nmol in acetone) for a total of four doses. Control mice of each genotype were treated with acetone alone. 24-hours after the last TPA treatment, mice were sacrificed and the tail skin analysed.
For telomere length analyses, samples from mouse tail and back skin, small intestine, cornea, testis and brain were harvested and fixed o/n in neutralbuffered formalin at 4° C., dehydrated through graded alcohols and xylene, and embedded in paraffin. Prior to embedding, dissected skin was cut parallel to the spine in order to obtain longitudinal hair follicle sections. The intestinal tract was flushed with PBS and rolled up in a compact circle using longitudinally oriented jejunal sections for analysis. For cornea and testis analyses, whole eyes and testis were cut in half prior to dehydration. Finally, brain was coronal-dissected to harvest the rostral hippocampus. In all cases, […] sections were used for QFISH and immunostaining analyses.
For Q-FISH, paraffin-embedded tissue sections were hybridized with a PNA-tel Cy3-labelled probe and telomere length was determined as described (González-Suárez et al., 2000; Muñoz et al., 2005; Zijlmans et al., 1997). Slides were deparaffinized in three xylene washes (3 m each), then treated for 3 m with a 100, 95 and 70% ethanol series, followed by telomere Q-FISH protocol performed as described (Samper et al., 2000). DAPI, Cy3 signals were acquired simultaneously into separate channels using a confocal ultraspectral microscope (Leica TCS-SP2-A-OBS-UV) using a PL APO 20×/0.70 PH2 as lens with Leica LCS software and maximum projections from image stacks (10 sections at steps 1.0 μm) were generated for image quantification. The DPSS-561 laser (Cy3 laser) was hold at a constant intensity to capture all the mouse tissues images.
High throughput quantitative image analysis was performed on confocal images using the Metamorph platform (version 6.3r6; Molecular Devices, Union City, Calif.). The DAPI image was used to define the nuclear area and the Cy3 image to quantify of telomere fluorescence. In all cases, background noise was subtracted from each image prior to making […] measurements. The DAPI images were signal-intensity thresholded, segmented and converted to 1-bit binary image. The binary DAPI mask was applied to the matching Cy3 to obtain a combined image with telomere fluorescence information for each
nucleus. Cy3 fluorescence intensity (telomere fluorescence) was measured as “average gray values” (total gray value/nuclei area) units (arbitrary units of fluorescence). These “average telomere fluorescence” values always represent the average Cy3 pixel intensity for the total nuclear area, and not the average value of individual telomere spot intensities, therefore ruling out that differences in nuclear size may influence telomere length measurements. A code of four colours was used to classify the nuclei according to their average telomere fluorescence. Telomere fluorescence ranges were initially set up to allocate in each range roughly ¼ of the total cells of a given tissue in wild type mice of 2 months of age. […] Telomere fluorescence ranges of a given tissue obtained in this manner were then maintained constant between genotypes, treatment and ages to facilitate comparisons.

[1] = wild-type mice, TPA-treated vs untreated, FIG. 1d, significant
[2] = wild-type mice, upon TPA treatment, FIG. 6

Structure (SMILES): CCCCCCCCCCCCCC(=O)O[C@@H]1[C@@H](C)[C@@]2(O)[C@@H](C=C(CO)C[C@]3(O)C(=O)C(C)=C[C@@H]23)[C@H]2C(C)(C)[C@]12OC(C)=O [TPA]
- percentage of cells with the longest telomeres at the TA compartments and the interfollicular epidermis (telomerase-deficient G1 Terc-/- mice, TPA-treated skin, FIG. 1c,d): did not show increased percentage
- percentage of cells with the longest telomeres at the hair bulge (telomerase-deficient G1 Terc-/- mice, TPA-treated vs untreated skin, FIG. 1c): reduction
- total number of epidermal cells showing the longest telomeres (telomerase-deficient G1 Terc-/- mice, TPA-treated vs untreated skin, P<0.01, FIG. 1e): decreased
- frequency of long telomeres in all hair follicle compartments (telomere length histograms) (telomerase-deficient G1 Terc-/- mice, TPA-treated, FIG. 6): decreased frequency of long telomeres
- total number of epidermal cells showing 1800-3000 a.u. of telomere fluorescence (wild-type mice, TPA-treated vs untreated skin, P<0.05, FIG. 1e): significantly increased
- cells with the longest telomeres in the TA compartments (hair bulb and infundibulum) (wild-type mice, TPA-treated vs untreated tail skin): accumulation
- percentage of the cells with the longest telomeres at the hair bulge (wild-type mice, TPA-treated vs untreated tail skin, longest telomeres = 1800-3000 a.u. telomere fluorescence): decreased
- absolute number of cells containing the longest telomeres at the hair bulge [1]: decreased at the hair bulge
- absolute number of cells containing the longest telomeres in the other epidermal compartments [1]: concomitantly increased
- frequency of long telomeres in hair bulge cells (telomere length histograms) [2]: decreased frequency of long telomeres
- telomere length in cells located at the TA compartment and the interfollicular epidermis (telomere length histograms) [2]: increased telomere length
